Data as given in ChEMBL document CHEMBL4630906, “Data for DCP probe BAY-3153” (2021).
Calls of active or inactive are those of the source. No cut-off for these calls is given here.

How the values were obtained:
[1] = molecular target: T1, Sigma intracellular receptor 2 (Homo sapiens, UniProt Q5BJF2); experiment: GPCRScan assay: inhibition of Sigma 2; design: radioligand conc. used [nm] 5.0, parental cells HEKT
[2] = molecular target: 5-hydroxytryptamine receptor 2B (Homo sapiens) (UniProt P41595); details: Compound concentration 10.0 uM
[3] = molecular target: Muscarinic acetylcholine receptor M2 (Homo sapiens) (UniProt P08172); details: Compound concentration 10.0 uM
[4] = molecular target: T2, GABA-A receptor; anion channel (Rattus norvegicus) (UniProt O09028+P15431+P18506+P18508+P19969+P20236+P23574+P23576+P28471+P28473+P30191+P62813+P63079+P63138+Q91ZM7+Q9ES14); details: Compound concentration 10.0 uM
[5] = molecular target: D(4) dopamine receptor (Homo sapiens) (UniProt P21917); details: Compound concentration 10.0 uM
[6] = molecular target: 5-hydroxytryptamine receptor 1A (Homo sapiens) (UniProt P08908); details: Compound concentration 10.0 uM
[7] = GPCRScan assay: inhibition of GABA/PBR; design: species or system Rattus norvegicus; radioligand conc. used [nm] 0.3 – 2.0, parental cells brain tissue
[8] = molecular target: T3, Kappa-type opioid receptor (Homo sapiens, UniProt P41145); details: Compound concentration 10.0 uM
[9] = molecular target: T4, Sodium-dependent serotonin transporter (Homo sapiens, UniProt P31645); details: Compound concentration 10.0 uM
[10] = molecular target: D(1A) dopamine receptor (Homo sapiens) (UniProt P21728); details: Compound concentration 10.0 uM
[11] = molecular target: Alpha-1A adrenergic receptor (Homo sapiens) (UniProt P35348); details: Compound concentration 10.0 uM
[12] = molecular target: Mu-type opioid receptor (Homo sapiens) (UniProt P35372); details: Compound concentration 10.0 uM
[13] = molecular target: Alpha-1D adrenergic receptor (Homo sapiens) (UniProt P25100); details: Compound concentration 10.0 uM
[14] = molecular target: 5-hydroxytryptamine receptor 2C (Homo sapiens) (UniProt P28335); details: Compound concentration 10.0 uM
[15] = molecular target: T3, Kappa-type opioid receptor; experiment: GPCRScan assay: inhibition of KOR; design: radioligand conc. used [nm] 0.6 – 1.2, parental cells stable HEK
[16] = molecular target: D(3) dopamine receptor (Homo sapiens) (UniProt P35462); details: Compound concentration 10.0 uM
[17] = molecular target: Beta-3 adrenergic receptor (Homo sapiens) (UniProt P13945); details: Compound concentration 10.0 uM
[18] = molecular target: 5-hydroxytryptamine receptor 3A (Homo sapiens) (UniProt P46098); details: Compound concentration 10.0 uM
[19] = molecular target: T5, Sigma non-opioid intracellular receptor 1 (Homo sapiens, UniProt Q99720); details: Compound concentration 10.0 uM
[20] = molecular target: 5-hydroxytryptamine receptor 5A (Homo sapiens) (UniProt P47898); details: Compound concentration 10.0 uM
[21] = molecular target: 5-hydroxytryptamine receptor 2A (Homo sapiens) (UniProt P28223); details: Compound concentration 10.0 uM
Rattus norvegicus = species on record: Rattus norvegicus; details: Compound concentration 10.0 uM
[22] = molecular target: Alpha-2C adrenergic receptor (Homo sapiens) (UniProt P18825); details: Compound concentration 10.0 uM
[23] = molecular target: Sodium-dependent noradrenaline transporter (Homo sapiens) (UniProt P23975); details: Compound concentration 10.0 uM
[24] = molecular target: C-C chemokine receptor type 1 (Homo sapiens, UniProt P32246); experiment: CCR1 cellular Ca2+-flux assay; format: functional
[25] = molecular target: Muscarinic acetylcholine receptor M1 (Homo sapiens) (UniProt P11229); details: Compound concentration 10.0 uM
[26] = molecular target: T1, Sigma intracellular receptor 2; details: Compound concentration 10.0 uM
[27] = molecular target: 5-hydroxytryptamine receptor 1B (Homo sapiens) (UniProt P28222); details: Compound concentration 10.0 uM
[28] = molecular target: Beta-2 adrenergic receptor (Homo sapiens) (UniProt P07550); details: Compound concentration 10.0 uM
[29] = molecular target: T2, GABA-A receptor; anion channel (Rattus norvegicus); details: Compound concentration 10.0 uM; remark: listed apart in the source
[30] = molecular target: 5-hydroxytryptamine receptor 1D (Homo sapiens) (UniProt P28221); details: Compound concentration 10.0 uM
[31] = molecular target: Muscarinic acetylcholine receptor M3 (Homo sapiens) (UniProt P20309); details: Compound concentration 10.0 uM
[32] = molecular target: T5, Sigma non-opioid intracellular receptor 1; experiment: GPCRScan assay: inhibition of Sigma 1; design: radioligand conc. used [nm] 4.0 – 5.0, parental cells HEKT
[33] = molecular target: Sodium-dependent dopamine transporter (Homo sapiens) (UniProt Q01959); details: Compound concentration 10.0 uM
[34] = molecular target: Histamine H2 receptor (Homo sapiens) (UniProt P25021); details: Compound concentration 10.0 uM
[35] = molecular target: D(1B) dopamine receptor (Homo sapiens) (UniProt P21918); details: Compound concentration 10.0 uM
[36] = molecular target: Histamine H1 receptor (Homo sapiens) (UniProt P35367); details: Compound concentration 10.0 uM
[37] = molecular target: D(2) dopamine receptor (Homo sapiens) (UniProt P14416); details: Compound concentration 10.0 uM
[38] = molecular target: Histamine H3 receptor (Homo sapiens) (UniProt Q9Y5N1); details: Compound concentration 10.0 uM
[39] = molecular target: 5-hydroxytryptamine receptor 6 (Homo sapiens) (UniProt P50406); details: Compound concentration 10.0 uM
[40] = molecular target: Delta-type opioid receptor (Homo sapiens) (UniProt P41143); details: Compound concentration 10.0 uM
[41] = molecular target: Muscarinic acetylcholine receptor M5 (Homo sapiens) (UniProt P08912); details: Compound concentration 10.0 uM
[42] = molecular target: Muscarinic acetylcholine receptor M4 (Homo sapiens) (UniProt P08173); details: Compound concentration 10.0 uM
[43] = molecular target: Alpha-2B adrenergic receptor (Homo sapiens, UniProt P18089); experiment: GPCRScan assay: inhibition of Alpha2B; design: radioligand conc. used [nm] 1.5 – 2.0, parental cells HEKT
D(4) dopamine receptor = D(4) dopamine receptor (Homo sapiens, UniProt P21917); experiment: GPCRScan assay: inhibition of D4; design: radioligand conc. used [nm] 0.6 – 1.7, parental cells Stable HEK
[44] = molecular target: Beta-1 adrenergic receptor (Homo sapiens) (UniProt P08588); details: Compound concentration 10.0 uM
[45] = molecular target: Alpha-1B adrenergic receptor (Homo sapiens) (UniProt P35368); details: Compound concentration 10.0 uM
[46] = molecular target: Alpha-2A adrenergic receptor (Homo sapiens) (UniProt P08913); details: Compound concentration 10.0 uM
[47] = molecular target: Histamine H4 receptor (Homo sapiens) (UniProt Q9H3N8); details: Compound concentration 10.0 uM
[48] = molecular target: T4, Sodium-dependent serotonin transporter; experiment: GPCRScan assay: inhibition of SERT; design: radioligand conc. used [nm] 1.5 – 2.0, parental cells stable HEK

T3 sequence (P41145 whole entry): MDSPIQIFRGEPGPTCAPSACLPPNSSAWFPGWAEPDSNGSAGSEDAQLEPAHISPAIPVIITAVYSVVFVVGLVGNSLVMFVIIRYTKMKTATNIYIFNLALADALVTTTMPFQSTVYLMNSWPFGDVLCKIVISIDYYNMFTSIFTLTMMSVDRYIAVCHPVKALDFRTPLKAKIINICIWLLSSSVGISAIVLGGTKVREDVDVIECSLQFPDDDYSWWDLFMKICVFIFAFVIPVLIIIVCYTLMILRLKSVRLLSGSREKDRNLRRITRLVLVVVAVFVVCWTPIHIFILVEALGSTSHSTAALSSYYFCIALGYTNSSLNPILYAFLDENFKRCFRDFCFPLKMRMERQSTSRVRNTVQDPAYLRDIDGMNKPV
T5 sequence (Q99720 whole entry): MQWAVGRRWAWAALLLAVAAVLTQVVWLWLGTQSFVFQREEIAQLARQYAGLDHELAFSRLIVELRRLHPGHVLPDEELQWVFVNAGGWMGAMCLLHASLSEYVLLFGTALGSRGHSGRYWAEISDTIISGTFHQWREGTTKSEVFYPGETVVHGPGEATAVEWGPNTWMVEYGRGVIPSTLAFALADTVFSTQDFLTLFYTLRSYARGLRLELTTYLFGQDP
T1 sequence (Q5BJF2 whole entry): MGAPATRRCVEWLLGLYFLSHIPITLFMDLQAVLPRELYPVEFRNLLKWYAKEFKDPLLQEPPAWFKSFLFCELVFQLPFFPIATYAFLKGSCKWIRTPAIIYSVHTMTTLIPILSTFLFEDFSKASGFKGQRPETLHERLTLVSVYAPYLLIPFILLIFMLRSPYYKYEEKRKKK
Sequence of 5-hydroxytryptamine receptor 6 (Homo sapiens) (P50406 whole entry): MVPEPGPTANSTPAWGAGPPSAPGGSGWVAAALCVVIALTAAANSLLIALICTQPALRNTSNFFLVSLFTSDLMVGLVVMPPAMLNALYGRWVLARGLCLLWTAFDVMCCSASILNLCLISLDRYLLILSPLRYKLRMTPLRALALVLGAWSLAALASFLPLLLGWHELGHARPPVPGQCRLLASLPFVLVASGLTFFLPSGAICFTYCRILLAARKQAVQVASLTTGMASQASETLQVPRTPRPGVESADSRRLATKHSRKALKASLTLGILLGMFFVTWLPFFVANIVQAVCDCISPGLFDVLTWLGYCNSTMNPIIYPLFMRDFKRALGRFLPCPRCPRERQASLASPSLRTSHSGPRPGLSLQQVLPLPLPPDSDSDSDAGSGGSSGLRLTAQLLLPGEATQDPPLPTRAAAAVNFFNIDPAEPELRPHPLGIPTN
Sequence of D(1B) dopamine receptor (Homo sapiens) (P21918 whole entry): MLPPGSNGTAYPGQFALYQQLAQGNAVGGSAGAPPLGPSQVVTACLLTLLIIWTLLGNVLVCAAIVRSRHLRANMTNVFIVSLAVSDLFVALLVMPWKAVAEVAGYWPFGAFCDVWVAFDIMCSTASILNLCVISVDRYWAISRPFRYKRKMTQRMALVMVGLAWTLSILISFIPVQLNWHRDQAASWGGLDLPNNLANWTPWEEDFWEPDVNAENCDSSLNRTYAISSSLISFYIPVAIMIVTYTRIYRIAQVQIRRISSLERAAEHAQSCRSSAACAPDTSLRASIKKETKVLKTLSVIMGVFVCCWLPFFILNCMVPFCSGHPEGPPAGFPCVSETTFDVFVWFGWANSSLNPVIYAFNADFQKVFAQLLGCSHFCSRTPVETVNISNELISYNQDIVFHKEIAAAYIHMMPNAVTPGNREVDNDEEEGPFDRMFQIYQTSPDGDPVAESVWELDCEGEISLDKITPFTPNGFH
Sequence of Alpha-1A adrenergic receptor (Homo sapiens) (P35348 whole entry): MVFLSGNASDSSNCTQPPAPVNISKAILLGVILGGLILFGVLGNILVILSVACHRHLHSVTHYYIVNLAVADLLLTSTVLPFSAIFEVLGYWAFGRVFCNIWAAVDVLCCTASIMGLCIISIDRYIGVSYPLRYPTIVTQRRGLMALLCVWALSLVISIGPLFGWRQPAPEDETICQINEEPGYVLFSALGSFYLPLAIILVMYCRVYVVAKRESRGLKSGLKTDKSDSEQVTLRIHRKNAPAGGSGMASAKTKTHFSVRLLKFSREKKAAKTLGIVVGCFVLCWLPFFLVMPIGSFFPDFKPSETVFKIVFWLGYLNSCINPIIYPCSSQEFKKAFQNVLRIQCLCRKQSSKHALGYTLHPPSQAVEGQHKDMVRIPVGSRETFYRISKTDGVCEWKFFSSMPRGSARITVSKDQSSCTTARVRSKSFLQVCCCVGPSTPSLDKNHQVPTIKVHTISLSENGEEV
Sequence of 5-hydroxytryptamine receptor 2C (Homo sapiens) (P28335 whole entry): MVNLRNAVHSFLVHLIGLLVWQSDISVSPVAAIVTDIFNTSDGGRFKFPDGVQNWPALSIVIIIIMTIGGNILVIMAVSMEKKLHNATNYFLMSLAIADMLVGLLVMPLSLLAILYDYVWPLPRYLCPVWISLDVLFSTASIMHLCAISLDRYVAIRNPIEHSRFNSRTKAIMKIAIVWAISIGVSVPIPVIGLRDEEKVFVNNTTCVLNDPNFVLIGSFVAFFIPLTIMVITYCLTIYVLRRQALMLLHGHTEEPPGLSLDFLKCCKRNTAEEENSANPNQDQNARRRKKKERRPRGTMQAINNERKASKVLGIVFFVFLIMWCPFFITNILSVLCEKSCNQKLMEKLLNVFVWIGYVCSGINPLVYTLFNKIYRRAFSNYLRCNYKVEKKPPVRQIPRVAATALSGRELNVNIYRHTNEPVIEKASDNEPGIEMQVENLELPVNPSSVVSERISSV
Sequence of 5-hydroxytryptamine receptor 2B (Homo sapiens) (P41595 whole entry): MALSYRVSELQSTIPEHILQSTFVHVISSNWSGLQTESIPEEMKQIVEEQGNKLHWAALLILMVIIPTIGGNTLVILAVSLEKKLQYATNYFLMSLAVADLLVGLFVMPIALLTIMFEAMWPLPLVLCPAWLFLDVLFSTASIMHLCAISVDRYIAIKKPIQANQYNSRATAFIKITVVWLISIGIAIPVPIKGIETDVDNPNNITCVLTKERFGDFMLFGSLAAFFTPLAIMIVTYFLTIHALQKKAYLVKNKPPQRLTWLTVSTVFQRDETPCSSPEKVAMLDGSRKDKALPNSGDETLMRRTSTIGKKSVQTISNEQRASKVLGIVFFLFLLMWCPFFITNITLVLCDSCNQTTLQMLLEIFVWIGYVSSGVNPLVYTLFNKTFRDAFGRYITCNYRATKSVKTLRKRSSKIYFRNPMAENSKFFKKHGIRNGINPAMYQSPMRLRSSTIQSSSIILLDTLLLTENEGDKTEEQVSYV
Sequence of 5-hydroxytryptamine receptor 5A (Homo sapiens) (P47898 whole entry): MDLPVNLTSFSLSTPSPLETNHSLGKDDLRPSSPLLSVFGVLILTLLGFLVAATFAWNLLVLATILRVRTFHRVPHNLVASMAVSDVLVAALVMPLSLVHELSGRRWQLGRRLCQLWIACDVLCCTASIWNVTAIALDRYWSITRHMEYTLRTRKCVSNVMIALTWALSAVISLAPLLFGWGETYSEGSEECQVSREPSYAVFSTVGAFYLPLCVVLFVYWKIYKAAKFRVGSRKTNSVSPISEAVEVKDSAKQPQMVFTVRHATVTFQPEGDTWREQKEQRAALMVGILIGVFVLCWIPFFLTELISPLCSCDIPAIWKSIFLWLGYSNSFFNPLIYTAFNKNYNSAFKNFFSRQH
Sequence of D(3) dopamine receptor (Homo sapiens) (P35462 whole entry): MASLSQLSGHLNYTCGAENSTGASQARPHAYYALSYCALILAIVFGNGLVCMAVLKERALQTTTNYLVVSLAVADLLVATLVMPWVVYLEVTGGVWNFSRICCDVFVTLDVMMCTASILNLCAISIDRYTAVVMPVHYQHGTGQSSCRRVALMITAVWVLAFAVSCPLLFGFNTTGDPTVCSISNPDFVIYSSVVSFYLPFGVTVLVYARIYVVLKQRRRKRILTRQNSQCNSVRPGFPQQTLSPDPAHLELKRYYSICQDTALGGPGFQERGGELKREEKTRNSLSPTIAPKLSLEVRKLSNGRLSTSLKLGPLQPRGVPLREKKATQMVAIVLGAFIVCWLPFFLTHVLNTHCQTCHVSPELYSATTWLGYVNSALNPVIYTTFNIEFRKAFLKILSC
Sequence of Muscarinic acetylcholine receptor M3 (Homo sapiens) (P20309 whole entry, looked up): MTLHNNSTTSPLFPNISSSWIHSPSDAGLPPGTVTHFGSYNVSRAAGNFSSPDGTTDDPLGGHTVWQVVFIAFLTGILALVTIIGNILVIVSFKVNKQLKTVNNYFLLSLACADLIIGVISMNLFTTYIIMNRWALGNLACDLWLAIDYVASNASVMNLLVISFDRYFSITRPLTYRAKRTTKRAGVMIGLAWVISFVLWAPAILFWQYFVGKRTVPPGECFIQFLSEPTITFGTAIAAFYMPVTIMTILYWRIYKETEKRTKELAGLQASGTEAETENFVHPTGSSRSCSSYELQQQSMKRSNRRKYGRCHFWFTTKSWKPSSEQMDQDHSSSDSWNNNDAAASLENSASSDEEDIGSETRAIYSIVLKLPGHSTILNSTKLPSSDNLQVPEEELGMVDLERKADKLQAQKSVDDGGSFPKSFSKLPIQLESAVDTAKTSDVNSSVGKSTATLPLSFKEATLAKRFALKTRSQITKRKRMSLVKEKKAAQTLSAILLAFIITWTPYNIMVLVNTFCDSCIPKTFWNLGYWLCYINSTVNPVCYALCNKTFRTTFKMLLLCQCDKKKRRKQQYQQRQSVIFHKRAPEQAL
Sequence of C-C chemokine receptor type 1 (P32246 whole entry): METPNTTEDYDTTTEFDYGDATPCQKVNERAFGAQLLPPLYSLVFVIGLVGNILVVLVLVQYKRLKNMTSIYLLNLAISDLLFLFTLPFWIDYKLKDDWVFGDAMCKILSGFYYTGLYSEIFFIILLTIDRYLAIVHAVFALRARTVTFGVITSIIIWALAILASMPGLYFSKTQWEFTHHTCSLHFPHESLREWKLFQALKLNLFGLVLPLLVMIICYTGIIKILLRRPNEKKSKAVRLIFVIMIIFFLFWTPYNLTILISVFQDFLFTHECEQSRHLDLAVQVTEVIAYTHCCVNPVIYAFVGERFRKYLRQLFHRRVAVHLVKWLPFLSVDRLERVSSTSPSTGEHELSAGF

SMILES: CCOc1cc(N2C3COCC2CN(C(=O)[C@H]2C[C@H](O)CN2c2ccc(Cl)cc2)C3)ccc1Cl [BAY-3153]
- Ki [1]: 1.48 µM
- inhibition [2]: 10.5%
- inhibition [3]: 8.64%
- inhibition [4]: -6.17%
- inhibition [5]: 15.5%
- inhibition [6]: -9.03%
- Ki [7]: 1.81 µM
- pKi [7]: 5.74
- inhibition [8]: 53.6%
- inhibition [9]: 33.4%
- inhibition [10]: 40.3%
- inhibition [11]: 17%
- inhibition [12]: 5.82%
- inhibition [13]: 7.09%
- inhibition [14]: 4.08%
- Ki [15]: 3.01 µM
- inhibition [16]: 1.58%
- inhibition [17]: -5.38%
- inhibition [18]: -1.97%
- inhibition [19]: 85%
- inhibition [20]: 1.7%
- inhibition [21]: 6.74%
- inhibition (Rattus norvegicus): 54.2%
- inhibition [22]: 2.17%
- inhibition [23]: 1.24%
- IC50 [24]: 0.003 µM (active)
- inhibition [25]: -5.67%
- inhibition [26]: 83.6%
- inhibition [27]: -2.86%
- inhibition [28]: -4.63%
- inhibition [29]: 18.6%
- inhibition [30]: -2.08%
- inhibition [31]: 8.61%
- Ki [32]: 1.83 µM
- inhibition [33]: 3.92%
- inhibition [34]: 27.7%
- inhibition [35]: 2.54%
- inhibition [36]: 11.2%
- inhibition [37]: 7.26%
- inhibition [38]: 17.3%
- inhibition [39]: -8.16%
- inhibition [40]: 10.3%
- inhibition [41]: -4.29%
- inhibition [42]: -3.29%

SMILES: O=C([C@H]1C[C@H](O)CN1c1ccc(Cl)cc1)N1CC2COCC(C1)N2Cc1ccc(Cl)cc1 [BAY-173]
- Ki [1]: 2.17 µM
- inhibition [2]: 14.8%
- inhibition [3]: 1.89%
- inhibition [4]: 0.65%
- inhibition [5]: 51.5%
- inhibition [8]: 18.7%
- inhibition [9]: 70.3%
- Ki [43]: 10 µM
- inhibition [11]: 7.02%
- inhibition [12]: 4.45%
- inhibition [13]: -7.34%
- inhibition [14]: -2.02%
- Ki (D(4) dopamine receptor): 10 µM
- inhibition [16]: 2.75%
- inhibition [17]: -9.84%
- inhibition [18]: -7.03%
- inhibition [19]: 69.5%
- inhibition [20]: -1.82%
- inhibition [44]: 6.12%
- inhibition [21]: 7.31%
- inhibition (Rattus norvegicus): -8.33%
- inhibition [22]: 14.4%
- inhibition [23]: -4.52%
- IC50 [24]: 1.2 µM (not active)
- inhibition [25]: -3.85%
- inhibition [26]: 76.5%
- inhibition [27]: -6.45%
- inhibition [28]: -7.55%
- inhibition [29]: 20%
- inhibition [30]: -7.5%
- inhibition [31]: 24.1%
- Ki [32]: 8.25 µM
- inhibition [45]: 0.94%
- inhibition [46]: 11.3%
- inhibition [34]: 8.13%
- inhibition [47]: -3.31%
- inhibition [35]: 6.84%
- inhibition [36]: 14.3%
- Ki [48]: 1.46 µM
- inhibition [38]: 9.39%
- inhibition [39]: 5.38%
- inhibition [41]: -1.65%
- inhibition [42]: -6.12%
